# Results reported in US20230290452A1, “Electronic Health Record (EHR)-Based Classifier for Acute Respiratory Distress Syndrome (ARDS) Subtyping” (Endpoint Health Inc., priority 2020, published 2023).
# Columns and labels:
# Format in all cases: in vivo, human
# ARDS patients [1] = assay: eICU (v1) dataset, statin intervention by Model C.4 subphenotype; parameters: Alive: unit not given here; conditions: for Alive / Dead / Mortality: no consideration to number doses and minimum dose size; for Mortality Rate: admitted with drug or initiated during ICU stay
# Description: The dataset from the eICU (v1) dataset was used for analysis. The intervention of interest was statins.
# The individual statins were then examined with no consideration to number of doses and minimum dose size. Using this methodology, there were several differential responses identified (bolded and underlined cells as shown below in Table 81).
# ARDS patients [2] = assay: eICU data filtered for patients without prior indication for statin use, statin intervention by subphenotype
# Description: This included patients with history of angina, congestive heart failure, coronary artery bypass grafting, multiple coronary artery bypass, hypertension requiring treatment, previous acute myocardial infarction, peripheral vascular disease, previous coronary intervention procedure, stroke, and/or transient ischemic attack.
# ARDS patients [3] = assay: eICU (v1) dataset, statin intervention by Model C.4 subphenotype; parameters: Alive: unit not given here
# [4] = admitted with drug or initiated during ICU stay, All Patients
# [5] = admitted with drug or initiated during ICU stay, Subphenotype A
# [6] = admitted with drug or initiated during ICU stay, Subphenotype B
# [7] = initiated during ICU stay, All Patients
# [8] = initiated during ICU stay, Subphenotype A
# [9] = initiated during ICU stay, Subphenotype B
# [10] = on drug at time of ICU admit, All Patients
# [11] = on drug at time of ICU admit, Subphenotype A
# [12] = on drug at time of ICU admit, Subphenotype B
compound,measurement,setting,value
CC[C@H](C)C(=O)O[C@H]1C[C@@H](C)C=C2C=C[C@H](C)[C@H](CC[C@@H]3C[C@@H](O)CC(=O)O3)[C@H]21 [Lovastatin],Alive,ARDS patients [1]; All Patients,12
same,Dead,ARDS patients [1]; All Patients,1
same,Mortality,ARDS patients [1]; All Patients,8%
same,Alive,ARDS patients [1]; Subphenotype A,10
same,Dead,ARDS patients [1]; Subphenotype A,0
same,Mortality,ARDS patients [1]; Subphenotype A,0%
same,Alive,ARDS patients [1]; Subphenotype B,2
same,Dead,ARDS patients [1]; Subphenotype B,1
same,Mortality,ARDS patients [1]; Subphenotype B,33%
CC[C@H](C)C(=O)O[C@H]1C[C@H](O)C=C2C=C[C@H](C)[C@H](CC[C@@H](O)C[C@@H](O)CC(=O)O)[C@H]21 [Pravastatin],Alive,ARDS patients [1]; All Patients,29
same,Dead,ARDS patients [1]; All Patients,6
same,Mortality,ARDS patients [1]; All Patients,17%
same,Alive,ARDS patients [1]; Subphenotype A,20
same,Dead,ARDS patients [1]; Subphenotype A,4
same,Mortality,ARDS patients [1]; Subphenotype A,17%
same,Alive,ARDS patients [1]; Subphenotype B,9
same,Dead,ARDS patients [1]; Subphenotype B,2
same,Mortality,ARDS patients [1]; Subphenotype B,18%
CC(C)c1nc(N(C)S(C)(=O)=O)nc(-c2ccc(F)cc2)c1/C=C/[C@@H](O)C[C@@H](O)CC(=O)O [Rosuvastatin],Alive,ARDS patients [1]; All Patients,32
same,Dead,ARDS patients [1]; All Patients,4
same,Mortality,ARDS patients [1]; All Patients,11%
same,Alive,ARDS patients [1]; Subphenotype A,23
same,Dead,ARDS patients [1]; Subphenotype A,2
same,Mortality,ARDS patients [1]; Subphenotype A,8%
same,Alive,ARDS patients [1]; Subphenotype B,9
same,Dead,ARDS patients [1]; Subphenotype B,2
same,Mortality,ARDS patients [1]; Subphenotype B,18%
CC(C)c1c(C(=O)Nc2ccccc2)c(-c2ccccc2)c(-c2ccc(F)cc2)n1CC[C@@H](O)C[C@@H](O)CC(=O)O [atorvastatin],Mortality Rate,ARDS patients [1]; All Patients,15.70
same,Alive,ARDS patients [1]; All Patients,289
same,Dead,ARDS patients [1]; All Patients,54
same,Mortality,ARDS patients [1]; All Patients,16%
same,Alive,ARDS patients [1]; Subphenotype A,209
same,Dead,ARDS patients [1]; Subphenotype A,26
same,Mortality,ARDS patients [1]; Subphenotype A,11%
same,Alive,ARDS patients [1]; Subphenotype B,80
same,Dead,ARDS patients [1]; Subphenotype B,28
same,Mortality,ARDS patients [1]; Subphenotype B,26%
same,Alive,ARDS patients [2]; [4],51
same,Dead,ARDS patients [2]; [4],12
same,Mortality Rate,ARDS patients [2]; [4],19.05
same,Alive,ARDS patients [2]; [5],40
same,Dead,ARDS patients [2]; [5],6
same,Mortality Rate,ARDS patients [2]; [5],13.04
same,Alive,ARDS patients [2]; [6],11
same,Dead,ARDS patients [2]; [6],6
same,Mortality Rate,ARDS patients [2]; [6],35.29
same,Alive,ARDS patients [2]; [7],42
same,Dead,ARDS patients [2]; [7],9
same,Mortality Rate,ARDS patients [2]; [7],17.65
same,Alive,ARDS patients [2]; [8],34
same,Dead,ARDS patients [2]; [8],5
same,Mortality Rate,ARDS patients [2]; [8],12.82
same,Alive,ARDS patients [2]; [9],8
same,Dead,ARDS patients [2]; [9],4
same,Mortality Rate,ARDS patients [2]; [9],33.33
same,Alive,ARDS patients [2]; [10],9
same,Dead,ARDS patients [2]; [10],3
same,Mortality Rate,ARDS patients [2]; [10],25
same,Alive,ARDS patients [2]; [11],6
same,Dead,ARDS patients [2]; [11],1
same,Mortality Rate,ARDS patients [2]; [11],14.29
same,Alive,ARDS patients [2]; [12],3
same,Dead,ARDS patients [2]; [12],2
same,Mortality Rate,ARDS patients [2]; [12],40
same,Alive,ARDS patients [3]; [4],290
same,Dead,ARDS patients [3]; [4],54
same,Alive,ARDS patients [3]; [5],209
same,Dead,ARDS patients [3]; [5],26
same,Mortality Rate,ARDS patients [3]; [5],11.06
same,Alive,ARDS patients [3]; [6],81
same,Dead,ARDS patients [3]; [6],28
same,Mortality Rate,ARDS patients [3]; [6],25.69
same,Alive,ARDS patients [3]; [7],210
same,Dead,ARDS patients [3]; [7],40
same,Mortality Rate,ARDS patients [3]; [7],16
same,Alive,ARDS patients [3]; [8],149
same,Dead,ARDS patients [3]; [8],19
same,Mortality Rate,ARDS patients [3]; [8],11.31
same,Alive,ARDS patients [3]; [9],61
same,Dead,ARDS patients [3]; [9],21
same,Mortality Rate,ARDS patients [3]; [9],25.61
same,Alive,ARDS patients [3]; [10],80
same,Dead,ARDS patients [3]; [10],14
same,Mortality Rate,ARDS patients [3]; [10],14.89
same,Alive,ARDS patients [3]; [11],60
same,Dead,ARDS patients [3]; [11],7
same,Mortality Rate,ARDS patients [3]; [11],10.45
same,Alive,ARDS patients [3]; [12],20
same,Dead,ARDS patients [3]; [12],7
same,Mortality Rate,ARDS patients [3]; [12],25.93
CCC(C)(C)C(=O)O[C@H]1C[C@@H](C)C=C2C=C[C@H](C)[C@H](CC[C@@H]3C[C@@H](O)CC(=O)O3)[C@H]21 [simvastatin],Mortality Rate,ARDS patients [1]; All Patients,12.87
same,Alive,ARDS patients [1]; All Patients,167
same,Dead,ARDS patients [1]; All Patients,26
same,Mortality,ARDS patients [1]; All Patients,13%
same,Alive,ARDS patients [1]; Subphenotype A,122
same,Dead,ARDS patients [1]; Subphenotype A,10
same,Mortality,ARDS patients [1]; Subphenotype A,8%
same,Alive,ARDS patients [1]; Subphenotype B,45
same,Dead,ARDS patients [1]; Subphenotype B,16
same,Mortality,ARDS patients [1]; Subphenotype B,26%
same,Alive,ARDS patients [2]; [4],23
same,Dead,ARDS patients [2]; [4],5
same,Mortality Rate,ARDS patients [2]; [4],17.86
same,Alive,ARDS patients [2]; [5],15
same,Dead,ARDS patients [2]; [5],1
same,Mortality Rate,ARDS patients [2]; [5],6.25
same,Alive,ARDS patients [2]; [6],8
same,Dead,ARDS patients [2]; [6],4
same,Mortality Rate,ARDS patients [2]; [6],33.33
same,Alive,ARDS patients [2]; [7],6
same,Dead,ARDS patients [2]; [7],4
same,Mortality Rate,ARDS patients [2]; [7],40
same,Alive,ARDS patients [2]; [8],5
same,Dead,ARDS patients [2]; [8],1
same,Mortality Rate,ARDS patients [2]; [8],16.67
same,Alive,ARDS patients [2]; [9],1
same,Dead,ARDS patients [2]; [9],3
same,Mortality Rate,ARDS patients [2]; [9],75
same,Alive,ARDS patients [2]; [10],17
same,Dead,ARDS patients [2]; [10],1
same,Mortality Rate,ARDS patients [2]; [10],5.56
same,Alive,ARDS patients [2]; [11],10
same,Dead,ARDS patients [2]; [11],0
same,Mortality Rate,ARDS patients [2]; [11],0
same,Alive,ARDS patients [2]; [12],7
same,Dead,ARDS patients [2]; [12],1
same,Mortality Rate,ARDS patients [2]; [12],12.5
same,Alive,ARDS patients [3]; [4],176
same,Dead,ARDS patients [3]; [4],26
same,Alive,ARDS patients [3]; [5],126
same,Dead,ARDS patients [3]; [5],10
same,Mortality Rate,ARDS patients [3]; [5],7.35
same,Alive,ARDS patients [3]; [6],50
same,Dead,ARDS patients [3]; [6],16
same,Mortality Rate,ARDS patients [3]; [6],24.24
same,Alive,ARDS patients [3]; [7],89
same,Dead,ARDS patients [3]; [7],15
same,Mortality Rate,ARDS patients [3]; [7],14.42
same,Alive,ARDS patients [3]; [8],63
same,Dead,ARDS patients [3]; [8],6
same,Mortality Rate,ARDS patients [3]; [8],8.70
same,Alive,ARDS patients [3]; [9],26
same,Dead,ARDS patients [3]; [9],9
same,Mortality Rate,ARDS patients [3]; [9],25.71
same,Alive,ARDS patients [3]; [10],87
same,Dead,ARDS patients [3]; [10],11
same,Mortality Rate,ARDS patients [3]; [10],11.22
same,Alive,ARDS patients [3]; [11],63
same,Dead,ARDS patients [3]; [11],4
same,Mortality Rate,ARDS patients [3]; [11],5.97
same,Alive,ARDS patients [3]; [12],24
same,Dead,ARDS patients [3]; [12],7
same,Mortality Rate,ARDS patients [3]; [12],22.58
